Earlier results on 2 molecules are cited in patent US20080280973A1, “Laulimalide Analogues as Therapeutic Agents” (priority 2004, published 2008).

For data set [1], the system named is multi-drug resistant cell line SKVLB-1.
The test system of data set [2] is KB, P388, A549, HT29 and MEL28 cell lines.
For data set [3], the system named is HeLa cells, NCI/ADR cells, MDA-MB-435 cell line. Particulars: relative to laulimalide; cell line not specified.

A word on the IC50: it is the concentration needed to halve the response being measured. On to `C=C1C[C@H](C)C[C@@H]2CC=C[C@@H](C/C=C\C(=O)O[C@H]([C@@H](O)/C=C/[C@@H]3CC(C)=CCO3)C[C@@H]3O[C@H]3[C@@H](O)C1)O2` [Laulimalide, laulimalide], for which the IC50 in data set [1] is 1.2 µM. Further, the anti-tumor potency range result in data set [2] is on record as “nanomolar range”.
“C16-C17-des-epoxy laulimalide [des-epoxy analogue]”: in data set [3], the “fold less potent than laulimalide” value is “approximately 19 fold”.
